Values of other authors as cited in patent US20250288631A1, “PHYTOTHERAPY FORMULATION FOR SEXUAL DYSFUNCTIONS” (priority 2022, published 2025).

Conditions: EFSA (2015)

Structure (SMILES): C/C=C/C=C\CC/C=C/C(=O)NCC(C)C [spilanthol]
- EFSA classification: class III
- Exposure limit (class III, 60 kg person): 90 µg/person/day
